Data on four compounds can be found in US10112955B2, “Isoindoline, azaisoindoline, dihydroindenone and dihydroazaindenone inhibitors of Mnk1 and Mnk2” (eFFECTOR THERAPEUTICS, INC., priority 2015, dated 2018).

One series addresses MNK2 (Homo sapiens (Human), UniProt Q9HBH9). Put plainly: MNK Biochemical Enzymatic Assay (ADP-Glo), MNK2. To be noted: 3 nM recombinant MNK2, 50 μM substrate peptide, 10 μM ATP. Here is the method: Compounds are screened for MNK inhibition using the ADP-Glo kinase assay kit (Promega, catalogue No. V9101). All kinase reactions are performed in Reaction Buffer E (15 mM HEPES pH7.4, 20 mM NaCl, 1 mM EGTA, 10 mM MgCl2, 0.1 mg/ml BGG, and 0.02% Tween-20). […] Final DMSO concentration in each reaction is 1%.
Kinase reactions are carried out in 96-well half-area white flat-bottom polystyrene plates in a final volume of 25 μl. MNK1/2 enzymes are pre-incubated with compound and peptide substrate for 5 minutes prior to the addition of ATP. After the addition of ATP, kinase reactions are incubated at room temperature for 40 minutes. Reactions are subsequently stopped by the addition of 25 μl of ADP-Glo Reagent and incubating for an additional 40 minutes. The final luminescent signal used for kinase activity readout is produced by the addition of 45 μl of Kinase Detection Reagent (ADP-Glo kit, Promega) and incubating for 40 minutes.

In a further series the test system is Phosphorylated eIF4E. In words: peIF4E Signaling Cellular Assay (CisBio peIF4E HTRF). The class given is cell-based. To be noted: cells incubated with compound for 2 hrs at 37° C., 12-point curve. An outline of the steps: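 Phospho-eIF4E measured by HTRF (665 and 620 nm ratio) after overnight antibody incubation of lysates from cells exposed 2 h at 37° C to 3-fold compound dilutions. IC50 fitted by nonlinear regression of percent inhibition.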

A short description of series [1]: Pharmacokinetics, single oral gavage administration. It counts as in vivo. The conditions noted are these: male Sprague Dawley rats, single oral gavage 10 mg/kg, N = 3/group (Cpd. 71 N = 2), formulation 10% NMP/90% PEG400 (Cpd. 57: 10% DMA/90% PEG300); for AUC(0-inf) / Cmax / Tmax / half-life: rat, plasma. Here is the method:
(§1) Groups of Balb/c mice or Sprague-Dawley rats (n≥3 per dose group) are administered single doses of test compound. Compounds are formulated either as solutions in 10% N-methylpyrrolidone, 90% polyethyleneglycol 400 or as suspensions in 0.5% methylcellulose in water for oral gavage administration at a nominal dose level of 10 mg/kg. Compounds are formulated in 10% dimethylisosorbide, 15% ethanol, 35% propylene glycol, and 40% saline (or 40% D5W) for intravenous administration at a nominal dose level of 1 mg/kg. For intravenously dosed animals, blood samples are collected at 0.083, 0.25, 0.5, 1, 2, 4, 8, and 24 h post dose. For orally dosed animals, blood samples are collected at 0.25, 0.5, 1, 2, 4, 8, and 24 h post dose. Blood samples are collected from mice either serially via submandibular vein (approximately 0.1 mL each) or terminally via cardiac puncture (approximately 0.5 mL each). Blood samples are collected serially from rats via jugular vein catheter (approximately 0.2 mL each). Each blood sample is collected into a tube that is chilled and contains potassium EDTA as the anticoagulant. Plasma is separated and stored at approximately −80 C until analysis. Following protein precipitation with acetonitrile containing an internal standard, plasma samples are analyzed using a liquid chromatography/high-resolution mass spectrometry (LC-HRMS) method to determine plasma concentrations. Plasma concentration versus time data are subjected to noncompartmental pharmacokinetic analysis using Phoenix™ Winnonlin® (Certara LP) to determine pharmacokinetic parameters, including Area Under the Curve (AUC), Clearance (Cl), Volume of Distribution at Steady-State (Vss), and terminal half-life (T1/2). Data from orally and intravenously dose are highlighted in Tables 3 and 4, respectively.

Series [2] is described as follows: Pharmacokinetics, single intravenous bolus administration. It counts as in vivo. To be noted: rat, plasma, male Sprague Dawley rats, single intravenous bolus 1 mg/kg, N = 3/group, formulation 10% NMP/15% EtOH/35% PEG400/40% D5W (Cpd. 57: 10% DMA/15% EtOH/35% PEG400/40% D5W); for half-life: read-out: T½ (converted); for Vd: read-out: Vss. Here is the method:
as §1, with “Compounds are formulated in 10% dimethylisosorbide, 15% ethanol, 35% propylene glycol, and 40% saline (or 40% D5W) for intravenous administration at a nominal dose level of 1 mg/kg.” left out

Chain of MNK2 (Q9HBH9 whole entry): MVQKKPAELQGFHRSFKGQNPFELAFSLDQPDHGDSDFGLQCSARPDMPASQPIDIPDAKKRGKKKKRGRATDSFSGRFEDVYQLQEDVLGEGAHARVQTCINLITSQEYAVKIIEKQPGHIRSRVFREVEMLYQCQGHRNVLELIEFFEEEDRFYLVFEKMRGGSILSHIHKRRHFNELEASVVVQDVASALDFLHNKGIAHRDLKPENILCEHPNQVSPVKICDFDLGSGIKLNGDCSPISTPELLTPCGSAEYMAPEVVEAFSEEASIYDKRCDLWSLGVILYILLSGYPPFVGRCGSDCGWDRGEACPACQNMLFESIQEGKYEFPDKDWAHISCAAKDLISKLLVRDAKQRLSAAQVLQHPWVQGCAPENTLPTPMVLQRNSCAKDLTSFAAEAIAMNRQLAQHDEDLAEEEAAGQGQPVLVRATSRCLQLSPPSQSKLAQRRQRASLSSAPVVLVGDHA

In the case of `Cc1cc(Nc2ncnc(N)c2C)cc2c1C(=O)NC21CCCCC1` [Cpd. No. 55, 6′-((6-amino-5-methylpyrimidin-4-yl)amino)-4′-methylspiro[cyclohexane-1,1′-isoindolin]-3′-one], on MNK2, the IC50 lay within 10 to 100 nM. Moreover, the IC50 in the series with Phosphorylated eIF4E was less than 50 nM. In series [1], the F is given as 25.0%, the area under the curve AUC(0-inf) was determined as 2650 ng·h/mL, the Cmax was found to be 425 ng/mL and the Tmax amounted to 4 h. Also, the half-life in series [1] is 2.59 h. Moreover, in series [2], the AUC(0-inf) stood at 1060 ng·h/mL, the clearance was 16.6 mL/min/kg, the half-life was 7.34 h and the Vd is 6.56 L/kg.
With `Cc1cc(Nc2ncnc(N)c2C)nc2c1C(=O)NC21CCCCC1` [Cpd. No. 71, 2′-((6-amino-5-methylpyrimidin-4-yl)amino)-4′-methylspiro[cyclohexane-1,7′-pyrrolo[3,4-b]pyridin]-5′(6′H)-one], the concentration for half-maximal inhibition (IC50) in the series with Phosphorylated eIF4E was less than 50 nM. In series [1], the F is given as 63.9%, the AUC(0-inf) turned out to be 5660 ng·h/mL, the Cmax was determined as 1140 ng/mL and the Tmax is 0.5 h. In series [1], the half-life was 2.9 h. In series [2], the AUC(0-inf) came out at 886 ng·h/mL, the clearance was determined as 19.1 mL/min/kg, the half-life is 4.15 h and the Vd worked out at 3.9 L/kg.
For the compound `COc1c(N)ncnc1Nc1cc(C)c2c(c1)C1(CCCCC1)NC2=O` [Cpd. No. 57, 6′-((6-amino-5-methoxypyrimidin-4-yl)amino)-4′-methylspiro[cyclohexane-1,1′-isoindolin]-3′-one], the IC50 on MNK2 was less than 10 nM. In the series with Phosphorylated eIF4E, the concentration for half-maximal inhibition (IC50) is less than 50 nM. In addition, in series [1], the F came to 14.5%, the AUC(0-inf) is 2490 ng·h/mL, the Cmax worked out at 584 ng/mL and the Tmax turned out to be 0.833 h. This compound gave a half-life in series [1] of 3.27 h. In series [2], the area under the curve AUC(0-inf) was 1720 ng·h/mL, the clearance came to 11.1 mL/min/kg, the half-life was 7.78 h and the Vd was determined as 3.46 L/kg.
Turning to `Cc1cc(Nc2ncnc(N)c2Cl)cc2c1C(=O)NC21CCCCC1` [Cpd. No. 58, 6′-((6-amino-5-chloropyrimidin-4-yl)amino)-4′-methylspiro[cyclohexane-1,1′-isoindolin]-3′-one], the IC50 at MNK2 was less than 10 nM. For the same compound, the IC50 in the series with Phosphorylated eIF4E was less than 50 nM. For the same compound, in series [1], the F worked out at 27.9%, the total exposure AUC(0-inf) is 1370 ng·h/mL, the Cmax is 417 ng/mL and the Tmax came to 0.417 h. Moreover, the half-life in series [1] was 9.15 h. In series [2], the AUC(0-inf) stood at 491 ng·h/mL, the clearance came out at 35.3 mL/min/kg, the half-life is 9.44 h and the Vd amounted to 13.2 L/kg.
